Source: patent publication EP0609518A1, “Optically active aminopyridine derivative and use thereof” (THE GREEN CROSS CORPORATION, priority 1992, dated 1994)

Tests used:
rat = assay: Toxicity by single administration to rat; format: in vivo; details: single administration of 450 mg/kg to rat
From the text: Toxicity by single administration to rat

[1] = system: male spontaneously hypertensive rat; assay: Antihypertensive action (systolic pressure by tail-cuff method); format: in vivo; details: 3 mg/kg p.o., dissolved in brine, at 1 hour from the oral administration
Procedure: The compound (hydrochloride) of the present invention obtained in Example 1 was dissolved in brine, and forcibly administered (p.o.) to male spontaneously hypertensive rat at 3 mg/kg. The systolic pressure was measured with a programmable sphygmonanometer (PS-200A, manufactured by Riken Kaihatsu, Japan) by tail-cuff method [Ohkubo H et al. Proc. Natl. Acad. Sci. USA, 87, 5153-5157 (1990)].

**Q.** `Cl.N#CN=C(Nc1ccc(N)nc1)N[C@@H]1C[C@@H]2CC[C@H]1C2` [hydrochloride of (+)-N-(6-amino-3-pyridyl)-N''-cyano-N'-[(1S] [hydrochloride of (+)-N-(6-amino-3-pyridyl)-N''-cyano-N'-[(1S,2R,4R)-2-norbornyl]guanidine] was tested. Which death case (rat) did it give?
**A.** did not result in a death case

**Q.** What about the vasodepressor action [1] of the same compound?
**A.** 33%
